Where two headings read alike, the source gives them in different places.
What was measured:
[1] = system: P388 murine leukemia cells; assay: In vitro cytotoxicity, one-hour exposure, clonogenic survival of P388 cells; format: cell-based; conditions: Mus musculus, read-out: in vitro cytotoxicity IC50, 1 hr exp.; P388, 1 hr exposure
Experimental: (§1) In vitro cytotoxicity was assayed by determining cell survival following exposure of P388 murine leukemia cells to a range of test compound concentrations. Cytotoxicity was quantitated following either a one-hour exposure or continuous exposure of P388 cells to test compound.
(§2) A Manual of Basic Technique. […] Briefly, following drug exposure cells were plated in soft agar and incubated (37°, 5% CO2) for 7-10 days during which time viable cells form visible colonies. Cytotoxicity following continuous exposure of cells to test compound was assayed by quantitating total P388 cells on a Coultier Counter following a 48-hour co-incubation of test compound with cells. P388 cells were maintained in log phase throughout the duration of cytotoxicity assays.
(§3) The percentage of cells surviving relative to an untreated control was graphed as a function of increasing drug concentration.

[2] = system: P388 murine leukemia cells; assay: In vitro cytotoxicity, continuous (48-hour) exposure of P388 cells; format: cell-based; conditions: Mus musculus; P388, continuous exposure (48-hour); read-out: in vitro cytotoxicity IC50, cont. exp.
Experimental: as §1, §2, §3

human topoisomerase II = target: T1, human topoisomerase II (Homo sapiens, UniProt P11388); assay: Mammalian topoisomerase II inhibition assay (topo II covalently attached to DNA, relative to mAMSA); format: biochemical; conditions: read-out: topo II inh. EC50
T1 construct: Topo II was purified from late log phase suspension cultures of HeLa WIS; endogenous in cells; host or cells: HeLa WIS
Excerpt: The inhibition of human topoisomerase II (hereafter topo II) was quantitated by a procedure adapted from that described by Trask et al., EMBO J., 3, 671-676 (1984). The assay quantitates the amount of topo II covalently attached to DNA at equilibrium during a topo II reaction. This assay determines the potential of a compound to stabilize this complex, which potential is closely related to the cytotoxicity of the compound.
Topo II was purified from late log phase suspension cultures of HeLa WIS by an adaptation of the method described by Per et al., Mol. Pharmacol., 32, 17-25 (1987).
Assays (in duplicate) were assembled at 4° C. Assay mix (25 μl) was distributed in Beckman (No. 265270) 1.5 mL microtiter tubes followed by the addition of 5 μl test compound to yield the final concentrations of assay components:
The assay mix including the test compound was incubated for 20 minutes at 37° C. The reaction was terminated at 37° C. by the addition of 3 μl 10% SDS followed by the addition of 266 μl 10 mM Tris-Cl pH 7.5, 20 μg/ml BSA, 20 μg/ml calf thymus DNA, 1% SDS.
A SDS/protein precipitate was formed by the addition of 28 μl 2.5M KCl followed by chilling on ice for a minimum of 10 minutes. The precipitate was collected and washed with a Brandell cell harvester on a GFB glass fiber filter membrane as follows. The contents of the assay tube were drawn up into the harvester. The tube was then rinsed 7× with 10 mM Tris-Cl pH 7.5, 1 mM EDTA and 100 mM KCl. The precipitate was washed with 1 L of a solution of 10 mM Tris-Cl pH 7.5, 1 mMEDTA, 100 mM KCl followed by 1 L of 95% ethyl alcohol and finally 0.5 L 70% of ethyl alcohol (per 48 samples in each case). After drying, CPM was determined by liquid scintillation counting with 5 ml Biofluor (NEN Research Products) or Readisafe (Beckman Instruments Inc.) cocktail.
Preparation of test compound--A stock solution (6 mg/ml) of test compound was prepared either in 0.1N sodium hydroxide or 0.2N hydrogen chloride. This solution then was diluted 1/5 into water and serially thereafter in either 0.02N sodium hydroxide or 0.04N hydrogen chloride, respectively. The stock solution and serial dilution of the test compound was stored at -20° C. prior to testing.
Screening of test compound--As an initial screen, the test compound was tested at a final concentration of 2, 20 and 200 μg/ml. The compound was then retested at a range of concentrations (usually 2-3×steps) bridging their approximate EC50 's, as estimated by the prescreen.
Controls--A solvent control which indicates the base level of topo II-DNA complex formed in the absence of the test compound was included in each test. A control, in which topo II was omitted, was included for each test compound at the highest drug concentration tested.
Reference Agent--A dose response curve with mAMSA at 0.01, 0.08, 0.16, 0.32, 1.0 and 10 μg/ml was included in each test.
The maximal DNA-topo II complex formed is taken as that equal to that formed at the nearly saturating dose of mAMSA (10 μg/ml).

[3] = conc. achieving 50% of maximal effect of mAMSA, topo II from HeLa cells

T1 sequence (P11388 whole entry): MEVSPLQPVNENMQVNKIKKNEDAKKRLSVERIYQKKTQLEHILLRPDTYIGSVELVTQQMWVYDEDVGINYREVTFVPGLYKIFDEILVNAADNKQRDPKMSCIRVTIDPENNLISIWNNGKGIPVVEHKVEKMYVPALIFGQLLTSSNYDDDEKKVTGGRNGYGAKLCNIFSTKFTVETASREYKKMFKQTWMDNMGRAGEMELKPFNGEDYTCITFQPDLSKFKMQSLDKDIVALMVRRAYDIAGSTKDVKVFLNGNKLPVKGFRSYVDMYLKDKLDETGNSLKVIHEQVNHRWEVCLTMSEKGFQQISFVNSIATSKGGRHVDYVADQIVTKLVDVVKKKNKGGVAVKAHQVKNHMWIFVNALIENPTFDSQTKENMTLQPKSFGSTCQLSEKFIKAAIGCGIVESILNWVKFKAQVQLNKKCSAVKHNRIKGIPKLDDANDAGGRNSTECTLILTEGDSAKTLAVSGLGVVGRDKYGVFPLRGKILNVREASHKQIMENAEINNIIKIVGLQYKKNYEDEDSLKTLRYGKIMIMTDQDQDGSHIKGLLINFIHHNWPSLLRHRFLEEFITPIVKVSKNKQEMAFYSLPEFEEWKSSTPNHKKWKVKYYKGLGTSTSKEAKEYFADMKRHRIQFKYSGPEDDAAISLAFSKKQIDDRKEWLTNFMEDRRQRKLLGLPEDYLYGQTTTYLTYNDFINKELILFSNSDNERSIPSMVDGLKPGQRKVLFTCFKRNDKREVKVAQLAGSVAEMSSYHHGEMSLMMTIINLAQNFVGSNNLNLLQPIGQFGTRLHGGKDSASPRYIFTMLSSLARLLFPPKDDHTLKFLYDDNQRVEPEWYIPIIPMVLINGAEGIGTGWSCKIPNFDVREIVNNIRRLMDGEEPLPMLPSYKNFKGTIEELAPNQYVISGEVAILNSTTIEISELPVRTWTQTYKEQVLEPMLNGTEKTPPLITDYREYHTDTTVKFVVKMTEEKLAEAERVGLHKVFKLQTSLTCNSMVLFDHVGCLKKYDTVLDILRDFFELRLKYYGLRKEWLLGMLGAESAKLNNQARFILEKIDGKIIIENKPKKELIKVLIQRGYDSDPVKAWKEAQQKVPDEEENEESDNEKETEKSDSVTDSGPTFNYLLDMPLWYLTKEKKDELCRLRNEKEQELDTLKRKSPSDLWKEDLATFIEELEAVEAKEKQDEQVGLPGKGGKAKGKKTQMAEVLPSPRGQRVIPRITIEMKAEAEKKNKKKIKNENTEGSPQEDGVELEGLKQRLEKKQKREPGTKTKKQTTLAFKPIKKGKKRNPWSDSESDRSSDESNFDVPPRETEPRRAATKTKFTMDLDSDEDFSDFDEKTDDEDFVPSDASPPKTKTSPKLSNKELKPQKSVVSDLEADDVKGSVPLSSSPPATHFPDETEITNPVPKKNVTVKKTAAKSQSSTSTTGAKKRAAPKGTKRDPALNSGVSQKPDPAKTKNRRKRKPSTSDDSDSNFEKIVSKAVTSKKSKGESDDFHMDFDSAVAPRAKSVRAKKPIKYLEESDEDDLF

Compound	EC50 (human topoisomerase II; [3]) [nM]	EC50 (human topoisomerase II) [nM]	IC50 [1] [nM]	IC50 [2] [nM]
Cc1cc(-c2c(F)cc3c4nn(C5CCCCC5)c(=O)c-4cn(C4CC4)c3c2F)cc(C)n1 [Example 40]	900	–	680	190
Cc1cc(-c2c(F)cc3c4nn(CCN5CCOCC5)c(=O)c-4cn(C4CC4)c3c2F)cc(C)n1 [Example 20]	48000	–	2800	410
CCN(CC)CCCn1nc2c3cc(F)c(-c4cc(C)nc(C)c4)c(F)c3n(C3CC3)cc-2c1=O [Example 16]	6000	–	490	1200
Cc1cc(-c2c(F)cc3c4nn(C5CCCC5)c(=O)c-4cn(C4CC4)c3c2F)cc(C)n1 [Example 41]	4000	–	1100	380
Cc1cc(-c2c(F)cc3c4nn(C5CCCCCC5)c(=O)c-4cn(C4CC4)c3c2F)cc(C)n1 [Example 42]	2900	–	4200	1500
Cc1cc(-c2c(F)cc3c4nn(C5CCOCC5)c(=O)c-4cn(C4CC4)c3c2F)cc(C)n1 [Example 46]	1700	–	290	250
CO[C@@H]1CCCC[C@@H]1n1nc2c3cc(F)c(-c4cc(C)nc(C)c4)c(F)c3n(C3CC3)cc-2c1=O (relative stereo) [Example 45]	6300	–	570	–

More lines, main results first:

EC50 (human topoisomerase II; [3]) [nM]	EC50 (human topoisomerase II) [nM]	Compound	IC50 [1] [nM]	IC50 [2] [nM]
15000	–	Cc1cc(-c2c(F)cc3c4nn(CCCCN(C)C)c(=O)c-4cn(C4CC4)c3c2F)cc(C)n1 [Example 54, 5-Cyclopropyl-6,8-difluoro-2,5-dihydro-2-[4-(dimethylamino)-butyl]-7-(2,6-dimethyl-4-pyridinyl) -3H-pyrazolo[4,3-c]quinolin-3-one]	400	500
11000	–	Cc1cc(-c2c(F)cc3c4nn(CCNC(C)(CO)CO)c(=O)c-4cn(C4CC4)c3c2F)cc(C)n1 [Example 55]	11000	25000
–	650000	Cc1cc(-c2c(F)cc3c4nn(CCN5CCCC5)c(=O)c-4cn(C4CC4)c3c2F)cc(C)n1 [Example 18]	300	35
5600	–	Cc1cc(-c2c(F)cc3c4nn(C5CCNCC5)c(=O)c-4cn(C4CC4)c3c2F)cc(C)n1 [Example 49]	2300	2500
8200	–	Cc1cc(-c2c(F)cc3c4nn(CC5CCCCC5)c(=O)c-4cn(C4CC4)c3c2F)cc(C)n1 [Example 43]	6700	4900

From patent US5334595A, “Pyrazoloquinolones as anticancer agents” (priority 1992, dated 1994)
